# Laboratory results reported in patent publication US11179412B2, “Methods of treating conditions involving elevated inflammatory response” (University of Pittsburgh—Of the Commonwealth System of …, priority 2017, dated 2021).
# Counter-ions that a name gives are not always drawn.
# Test system: STING activation (IFNβ release) in iBMDMs
# Assay: IFNβ release ELISA after STING ligand (or LPS) stimulation, iBMDMs
# Type: cell-based, mouse
# Conditions: iBMDMs; 3′3′-cGAMP 10 μg/ml, 16 hours; compound 10 μM
# Outline: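 IFNβ released into the medium was quantified by ELISA (mouse or human kit) after iBMDM stimulation with the canonical STING agonist 3′3′-cGAMP or with LPS.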
Structure (SMILES),fold increase in IFN-β release [fold],3′3′-cGAMP-induced IFNβ release
COc1cc2c(cc1OC)[C@@H]1Cc3ccc(OC)c(OC)c3CN1CC2 [Rotundine],0.54,–
CC(=O)OCC(=O)NCCCOc1cccc(CN2CCCCC2)c1 [Roxatidine Acetate HCl],3.16,–
"N#CC[C@H](C1CCCC1)n1cc(-c2ncnc3[nH]ccc23)cn1 [Ruxolitinib (INCB018424), Ruxolitinib]",0.20,–
Cc1nn(-c2ccccc2)c(C)c1/C=N/N1CCN(Cc2ccccc2)CC1 [SANT-1],1.49,–
CCn1c(N)c(C(=O)NC)c(=O)c2ccc(C#C[C@@](C)(O)COC)nc21 [SAR131675],1.13,–
C[S+]([O-])c1ccc(-c2nc(-c3ccc(F)cc3)c(-c3ccncc3)[nH]2)cc1 (stereo not shown) [SB203580],0.35,–
Cc1cc(NC(=O)Nc2ccc(N(C)C)cc2)c2cc(F)cc(F)c2n1 [SB408124],1.90,–
O=C1NC(=O)C(c2ccccc2[N+](=O)[O-])=C1Nc1ccc(O)c(Cl)c1 [SB415286],1.15,–
NC(=O)c1ccc(-c2nc(-c3ccccn3)c(-c3ccc4c(c3)OCO4)[nH]2)cc1 [SB431542],0.78,–
O=C(Nc1ccccc1Br)N[C@@H]1CCN(c2ccc(C(F)(F)F)cn2)C1 [SB705498],0.32,–
O=S(=O)(c1ccccc1)c1cnc2c(N3CCNCC3)cccc2c1 [SB742457],0.65,–
Cc1ccc(C(=O)N(CCCN)[C@@H](c2oc3cc(Cl)ccc3c(=O)c2Cc2ccccc2)C(C)C)cc1 [SB743921],1.16,–
O=S(=O)(CC1CS1)c1ccc(Oc2ccccc2)cc1 (stereo not shown) [SB-3CT],0.49,–
O=C(NNc1nc2cc(F)ccc2n2cccc12)c1cnccn1 [SC144],2.63,–
CC(C)N(CCCNC(=O)Nc1ccc(C(C)(C)C)cc1)C[C@H]1O[C@@H](n2cc(Br)c3c(N)ncnc32)[C@H](O)[C@@H]1O [SGC 0946],1.90,–
Cc1cc(Nc2ccc(NC(=O)c3ccc(Nc4ccnc5ccccc45)cc3)cc2)nc(N)n1 [SGI-1027],0.37,–
CN1CCC(CNc2ccc3ncc(-c4cccc(OC(F)(F)F)c4)n3n2)CC1 [SGI-1776 free base],0.65,–
Oc1ccc(Nc2nc(-c3ccc(Cl)cc3)cs2)cc1 [SKI II],0.49,–
O=C1NC(=O)/C(=C/c2cccc(C(F)(F)F)c2)S1 [SMI-4a],0.84,–
CC(C)(C)c1cnc(CSc2cnc(NC(=O)C3CCNCC3)s2)o1 [SNS-032 (BMS-387032)],1.01,–
Oc1c2ccccc2c2c3c(cccc13)N=N2 [SP600125],3.35,–
O=C(Nc1cc(C(F)(F)F)ccc1N1CCCCC1)c1ccncc1 [SRPIN340],2.38,–
O=C(Nc1ccccc1-c1cn2c(CN3CCNCC3)csc2n1)c1cnc2ccccc2n1 [SRT1720],0.76,–
COc1c(C)c(C(=O)c2ccc(N)c(C(=O)[O-])c2)n2ccccc12.[Na+] [SSR128129E],0.98,–

Structure (SMILES),fold increase in IFN-β release [fold],3′3′-cGAMP-induced IFNβ release
Cc1ccc(S(=O)(=O)Cc2nc(-c3ccc(C(=O)NCc4cccnc4)cc3)oc2C)cc1 [STF-118804],1.41,–
Cc1[nH]c(/C=C2\C(=O)Nc3ccc(S(=O)(=O)N(C)c4cccc(Cl)c4)cc32)c(C)c1C(=O)N1CCN(C)CC1 [SU11274],0.75,–
C[C@H](NCc1ccc(OCc2cccc(F)c2)cc1)C(N)=O [Safinamide Mesylate],5.18,–
O=C(/C=C/c1ccccc1)NC(NC(=S)Nc1ccc(Cl)cc1)C(Cl)(Cl)Cl (stereo not shown) [Sal003],0.18,–
"CCOC(=O)NCCCC(=O)NCCc1ccccc1 [Santacruzamate A (CAY10683), Santacruzamate A]",1.18,–
"Cn1cnc2c(F)c(Nc3ccc(Br)cc3Cl)c(C(=O)NOCCO)cc21 [Selumetinib (AZD6244), Selumetinib]",0.50,–
"CC(C)[C@H](O)C(=O)N[C@@H](C)C(=O)N[C@@H]1C(=O)N(C)CCc2ccccc21 [Semagacestat (LY450139), Semagacestat]",1.04,–
CN[C@H]1CC[C@@H](c2ccc(Cl)c(Cl)c2)c2ccccc21 [Sertraline HCl],0.22,–
CC(NC(=O)c1ccccc1/N=C/c1c(O)ccc2ccccc12)c1ccccc1 (stereo not shown) [Sirtinol],0.26,–
Cc1cc2c(cc1CC(=O)c1sccc1S(=O)(=O)Nc1onc(C)c1Cl)OCO2 [Sitaxentan sodium],1.16,–
Nc1ccc(C(=O)[O-])c(O)c1.[Na+] [Sodium 4-Aminosalicylate],0.74,–
CNC(=O)c1cc(Oc2ccc(NC(=O)Nc3ccc(Cl)c(C(F)(F)F)c3)cc2)ccn1 [Sorafenib],0.91,–
CN1CCN(c2nc(C3=C(c4c[nH]c5ccccc45)C(=O)NC3=O)c3ccccc3n2)CC1 [Sotrastaurin],0.59,–
O=[N+]([O-])c1ccc2c(c1)S(=O)(=O)C=C2 [Stattic],0.10,–
"Cc1cn([C@H]2C=C[C@@H](CO)O2)c(=O)[nH]c1=O [Stavudine (d4T), Stavudine]",8.20,promoted
"Cc1ccc(-n2nccn2)c(C(=O)N2CCN(c3nc4cc(Cl)ccc4o3)CC[C@H]2C)c1 [Suvorexant (MK-4305), Suvorexant]",1.54,–
O=C(Nc1ccncc1)c1cc([N+](=O)[O-])ccc1Cl [T0070907],2.09,–
O=S(=O)(c1ccccc1)N(CC(F)(F)F)c1ccc(C(O)(C(F)(F)F)C(F)(F)F)cc1 [T0901317],1.49,–
CNC(=O)c1ccccc1Nc1nc(Nc2ccc(N3CCOCC3)cc2OC)ncc1Cl [TAE226 (NVP-TAE226)],1.50,–
"CNC(=O)c1ccc2cc([C@@]3(O)CCn4cncc43)ccc2c1 [TAK-700 (Orteronel), Orteronel]",2.72,–
Cc1cc(OCCCS(C)(=O)=O)cc(C)c1-c1cccc(COc2ccc3c(c2)OC[C@H]3CC(=O)O)c1 [TAK-875],1.17,–
O=C1CC(=O)c2c(Cl)c(Cl)c(Cl)c(Cl)c21 [TCID],1.43,–
COc1ccc(C(=O)Nc2sc3c(c2C(N)=O)CCCC3)cc1OC [TCS 359],0.45,–
Nc1nc(N)c2nc(-c3cccc(O)c3)c(-c3cccc(O)c3)nc2n1 [TG100-115],2.65,–
